Measurements published in ChEMBL document CHEMBL1201862, “PubChem BioAssay data set” (2004).
Active and inactive are the calls of the source.

Assays:
[1] = enhancers of respiration in Yfh1-depleted yeast, dose response, Friedreich's ataxia, plus single-dose screen (AID 1465); assay type: functional;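 also: yeast depleted of Yfh1p frataxin homolog grown on glycerol needing respiration; WST-1 tetrazolium dye reduction as measure of cellular dehydrogenase metabolic activity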
BJ [2] = test: cells; assay type: functional, cell-based; conditions: Homo sapiens
Paired box protein Pax-8 = Paired box protein Pax-8 (Homo sapiens, UniProt Q06710); test: inhibitors of PAX8-driven TPO luciferase reporter, dose response, RMG-I cells, cherry-pick (AID 687027); assay type: functional, cell-based;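 also: luciferase reporter driven by Pax8 target thyroperoxidase promoter measured by SteadyGlo luminescence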
[3] = cytotoxicity toward DRD oncogenic fibroblasts, dose response, cell-based, non-viral oncogenic, luminescence (AID 1934); assay type: functional; conditions: Homo sapiens
BJ [4] = test: cytotoxicity toward BJ-TERT-LT-ST fibroblasts, dose response, cell-based, RAS-independent, luminescence (AID 1935); assay type: functional; conditions: Homo sapiens;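 also: BJ fibroblasts immortalized with TERT plus LT and ST oncogenes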
[5] = inhibitors of SNCA 5'UTR-driven translation, confirmation, luminescence, H4 neuroglioblastoma cells, dose confirmation (AID 2454); assay type: functional, cell-based;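 also: H4 neuroglioblastoma cells carrying an alpha-synuclein 5'UTR luciferase reporter; potency for inhibition of the luciferase signal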
[6] = Luminescence Cell-Based Dose Response HTS to Identify Inhibitors of 5'UTR Stem-Loop Driven Prion Protein mRNA Translation in H4 Neuroglioblastoma Cells. [Related pubchem assays: 1827 (Project Summary), 1813 (Primary HTS)]; assay type: functional
cells = assay type: functional, cell-based
[7] = inhibitors of firefly luciferase expression or activity, dose response, H4 neuroglioma cells, luminescence (AID 1990); assay type: functional, cell-based
BJ [8] = test: cytotoxicity toward BJ-TERT fibroblasts, dose response, cell-based, RAS-independent, luminescence (AID 1933); assay type: functional; conditions: Homo sapiens
[9] = inhibitors of SNCA 5'UTR-driven reporter translation, confirmation, H4 neuroglioma cells, luminescence (AID 1988); assay type: functional, cell-based
[10] = luciferase reporter signal reduction – luminescence, H4-C neuroglioblastoma cells, dose response (AID 2458); assay type: functional, cell-based;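 also: H4 neuroglioblastoma cells stably carrying a luciferase reporter gene fusion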
[11] = cytotoxicity in HEK-293T cells, dose response, cytotoxicity control for TCR NF-kB inhibitor project, luminescence, T-cell screen hits (AID 489026); assay type: functional, cell-based;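 also: cells exposed to compound about 14 hours before the viability readout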
[12] = target: T1, Neuropeptide Y receptor type 2 (Homo sapiens, UniProt P49146); test: NPY-Y2 antagonist potency, selectivity check, dose response, counter-screen for NPY-Y1 antagonist project, cell-based (AID 1278); assay type: functional
[13] = target: T2, Neuropeptide Y receptor type 1 (Homo sapiens, UniProt P25929); test: NPY-Y1 receptor antagonist potency, dose response, cell-based (AID 1277); assay type: functional
Vasopressin V1a receptor = Vasopressin V1a receptor (Homo sapiens, UniProt P37288); test: Fluorescence-based cell-based high throughput dose response screening assay for agonists of the vasopressin 1 receptor (V1R).; assay type: functional
Oxytocin receptor = Oxytocin receptor (Homo sapiens, UniProt P30559); test: Counterscreen for vasopressin 1 receptor (V1R) agonists: Fluorescence-based cell-based high throughput dose response assay for agonists of the Oxytocin Receptor (OXTR). [Related pubchem assays: 2435 (Primary screen (OXTR agonists in singlicate)), 434964 (Confirmation screen (V1R agonists in triplicate)), 434969 (Counterscreen (OXTR agonists in …; assay type: functional
[14] = Luminescence Cell-Based Dose Retest to Confirm Inhibitors of Cancer Stem Cells. [Related pubchem assays (depositor defined):AID2717, AID2721]; assay type: functional; conditions: Homo sapiens
[15] = Counterscreen for IDE inhibitors: Luminescence-based cell-based high throughput dose response assay to identify compounds that are cytotoxic to HEK cells. [Related pubchem assays: 434962 (Primary screen (IDE inhibitors in singlicate)), 449730 (Counterscreen (Cytotoxicity in triplicate)), 435028 (Confirmation (IDE inhibitors in triplicate)) …; assay type: functional; conditions: HEK293
Insulin-degrading enzyme = target: T3, Insulin-degrading enzyme (Homo sapiens, UniProt P14735); test: Dose Response: Fluorescence polarization-based cell-based high throughput dose response assay for inhibitors of insulin-degrading enzyme (IDE). [Related pubchem assays: 434962 (Primary screen (IDE inhibitors in singlicate)), 449730 (Counterscreen (Cytotoxicity in triplicate)), 435028 (Confirmation (IDE inhibitors in triplicate)), 434984 (Summary …; assay type: functional
T3 sequence (P14735 whole entry): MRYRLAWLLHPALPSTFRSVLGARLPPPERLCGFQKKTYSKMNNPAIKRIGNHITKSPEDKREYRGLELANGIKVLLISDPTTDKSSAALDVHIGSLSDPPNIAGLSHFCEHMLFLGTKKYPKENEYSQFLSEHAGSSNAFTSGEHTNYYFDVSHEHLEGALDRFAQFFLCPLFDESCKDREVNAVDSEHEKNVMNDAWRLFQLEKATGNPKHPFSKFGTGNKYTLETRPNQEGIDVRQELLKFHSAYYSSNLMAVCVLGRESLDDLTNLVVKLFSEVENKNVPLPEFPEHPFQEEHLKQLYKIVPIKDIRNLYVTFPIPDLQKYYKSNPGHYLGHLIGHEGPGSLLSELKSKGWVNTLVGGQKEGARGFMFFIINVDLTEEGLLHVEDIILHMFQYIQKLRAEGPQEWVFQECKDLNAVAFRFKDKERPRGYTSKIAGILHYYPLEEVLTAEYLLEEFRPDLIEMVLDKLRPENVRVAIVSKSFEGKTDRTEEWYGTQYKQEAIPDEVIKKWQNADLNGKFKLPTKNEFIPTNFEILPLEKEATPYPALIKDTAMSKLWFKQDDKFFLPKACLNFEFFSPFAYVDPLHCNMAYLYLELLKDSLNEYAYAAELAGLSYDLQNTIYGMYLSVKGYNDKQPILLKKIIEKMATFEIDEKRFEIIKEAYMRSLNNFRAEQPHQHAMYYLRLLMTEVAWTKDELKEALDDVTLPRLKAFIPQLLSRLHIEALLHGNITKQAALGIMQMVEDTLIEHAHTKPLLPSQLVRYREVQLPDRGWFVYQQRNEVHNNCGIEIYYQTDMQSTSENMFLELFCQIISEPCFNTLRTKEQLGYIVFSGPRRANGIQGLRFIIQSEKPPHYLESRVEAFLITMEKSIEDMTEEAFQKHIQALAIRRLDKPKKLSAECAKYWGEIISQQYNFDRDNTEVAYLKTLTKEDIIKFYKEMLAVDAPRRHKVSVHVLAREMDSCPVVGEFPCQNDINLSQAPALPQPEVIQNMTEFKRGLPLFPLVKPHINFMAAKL

[16] = target: T1, Neuropeptide Y receptor type 2; assay type: functional, cell-based
[17] = target: T2, Neuropeptide Y receptor type 1; assay type: functional
[18] = target: Peroxisome proliferator-activated receptor gamma/Nuclear receptor corepressor 2 (Homo sapiens, UniProt P37231+Q9Y618); assay type: functional
[19] = target: Photoreceptor-specific nuclear receptor (Homo sapiens, UniProt Q9Y5X4); assay type: functional;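 also: potency for compounds that break the NR2E3 corepressor complex and count as activators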
Galanin receptor type 2 = Galanin receptor type 2 (Homo sapiens, UniProt O43603); test: Dose Response cell-based high-throughput screening assay to identify agonists of galanin receptor 2 (GALR2). [Related pubchem assays: 864 ]; assay type: functional
Sequence of Galanin receptor type 2 (O43603 whole entry): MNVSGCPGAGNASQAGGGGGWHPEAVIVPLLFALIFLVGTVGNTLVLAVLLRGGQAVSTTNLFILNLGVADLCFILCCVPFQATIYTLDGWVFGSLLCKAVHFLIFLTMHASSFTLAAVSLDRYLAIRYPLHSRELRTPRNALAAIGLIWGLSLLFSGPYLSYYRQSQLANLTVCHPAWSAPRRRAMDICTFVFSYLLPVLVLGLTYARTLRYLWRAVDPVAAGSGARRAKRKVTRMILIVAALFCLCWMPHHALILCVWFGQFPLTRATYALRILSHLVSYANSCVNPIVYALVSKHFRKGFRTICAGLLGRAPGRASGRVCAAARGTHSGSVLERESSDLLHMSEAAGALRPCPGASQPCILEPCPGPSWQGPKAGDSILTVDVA

T2 sequence (P25929 whole entry): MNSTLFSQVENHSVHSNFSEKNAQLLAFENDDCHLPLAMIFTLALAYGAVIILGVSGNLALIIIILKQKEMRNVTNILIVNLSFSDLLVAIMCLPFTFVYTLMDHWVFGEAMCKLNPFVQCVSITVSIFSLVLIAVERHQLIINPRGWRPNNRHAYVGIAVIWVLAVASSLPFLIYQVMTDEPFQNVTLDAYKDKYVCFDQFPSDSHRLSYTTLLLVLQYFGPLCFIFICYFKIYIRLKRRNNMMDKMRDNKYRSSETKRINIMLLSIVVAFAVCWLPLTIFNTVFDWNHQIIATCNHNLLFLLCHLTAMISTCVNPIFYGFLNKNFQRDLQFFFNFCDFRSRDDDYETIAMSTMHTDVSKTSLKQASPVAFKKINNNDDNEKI
T1 sequence (P49146 whole entry): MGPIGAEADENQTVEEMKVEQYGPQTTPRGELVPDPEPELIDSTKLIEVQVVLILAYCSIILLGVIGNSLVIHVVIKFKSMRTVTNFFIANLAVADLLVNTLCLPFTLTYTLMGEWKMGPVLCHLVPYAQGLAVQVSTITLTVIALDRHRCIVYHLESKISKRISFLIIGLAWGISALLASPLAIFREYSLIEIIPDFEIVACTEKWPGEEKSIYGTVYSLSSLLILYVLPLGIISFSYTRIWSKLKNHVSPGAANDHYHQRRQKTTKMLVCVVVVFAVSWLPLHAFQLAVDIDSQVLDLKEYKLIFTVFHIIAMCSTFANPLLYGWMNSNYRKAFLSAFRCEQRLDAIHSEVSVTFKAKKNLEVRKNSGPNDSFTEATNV
Sequence of Vasopressin V1a receptor (P37288 whole entry): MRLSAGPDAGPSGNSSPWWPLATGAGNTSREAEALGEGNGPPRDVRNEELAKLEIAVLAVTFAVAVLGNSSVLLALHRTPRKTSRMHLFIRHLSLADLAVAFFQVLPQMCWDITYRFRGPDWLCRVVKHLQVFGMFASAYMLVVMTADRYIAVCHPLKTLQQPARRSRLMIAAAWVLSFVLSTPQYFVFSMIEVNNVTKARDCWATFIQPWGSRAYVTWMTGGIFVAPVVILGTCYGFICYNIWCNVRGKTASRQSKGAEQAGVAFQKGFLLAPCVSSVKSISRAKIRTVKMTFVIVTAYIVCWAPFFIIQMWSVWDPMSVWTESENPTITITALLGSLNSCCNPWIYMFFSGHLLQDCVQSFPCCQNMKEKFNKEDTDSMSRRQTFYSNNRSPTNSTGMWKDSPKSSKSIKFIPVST
Sequence of Paired box protein Pax-8 (Q06710 whole entry): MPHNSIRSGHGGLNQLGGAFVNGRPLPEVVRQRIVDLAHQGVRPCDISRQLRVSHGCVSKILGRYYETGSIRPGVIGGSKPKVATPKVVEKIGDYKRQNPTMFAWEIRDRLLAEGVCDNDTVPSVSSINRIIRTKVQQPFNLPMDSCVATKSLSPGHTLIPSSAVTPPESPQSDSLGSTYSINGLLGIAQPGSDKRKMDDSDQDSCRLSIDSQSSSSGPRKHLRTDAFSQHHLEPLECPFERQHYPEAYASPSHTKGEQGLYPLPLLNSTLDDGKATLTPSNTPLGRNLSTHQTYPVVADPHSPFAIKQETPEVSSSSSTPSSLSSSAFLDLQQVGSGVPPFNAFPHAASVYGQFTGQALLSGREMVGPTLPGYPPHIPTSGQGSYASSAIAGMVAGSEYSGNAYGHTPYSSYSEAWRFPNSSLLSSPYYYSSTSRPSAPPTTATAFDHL
Sequence of Peroxisome proliferator-activated receptor gamma/Nuclear receptor corepressor 2 (P37231 whole entry): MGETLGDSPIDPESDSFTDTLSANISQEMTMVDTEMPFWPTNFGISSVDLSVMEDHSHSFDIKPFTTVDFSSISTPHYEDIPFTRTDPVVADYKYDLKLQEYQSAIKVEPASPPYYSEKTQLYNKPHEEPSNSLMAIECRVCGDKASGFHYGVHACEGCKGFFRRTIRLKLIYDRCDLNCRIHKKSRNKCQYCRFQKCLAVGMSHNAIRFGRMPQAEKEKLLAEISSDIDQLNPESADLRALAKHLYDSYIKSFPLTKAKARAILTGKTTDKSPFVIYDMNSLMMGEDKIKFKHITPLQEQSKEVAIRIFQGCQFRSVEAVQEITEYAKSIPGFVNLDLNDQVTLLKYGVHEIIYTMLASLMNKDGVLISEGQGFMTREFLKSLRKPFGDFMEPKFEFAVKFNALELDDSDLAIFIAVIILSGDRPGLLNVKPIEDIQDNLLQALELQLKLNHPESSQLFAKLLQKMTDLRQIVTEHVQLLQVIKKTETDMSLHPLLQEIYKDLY
Sequence of Peroxisome proliferator-activated receptor gamma/Nuclear receptor corepressor 2 (Q9Y618 whole entry): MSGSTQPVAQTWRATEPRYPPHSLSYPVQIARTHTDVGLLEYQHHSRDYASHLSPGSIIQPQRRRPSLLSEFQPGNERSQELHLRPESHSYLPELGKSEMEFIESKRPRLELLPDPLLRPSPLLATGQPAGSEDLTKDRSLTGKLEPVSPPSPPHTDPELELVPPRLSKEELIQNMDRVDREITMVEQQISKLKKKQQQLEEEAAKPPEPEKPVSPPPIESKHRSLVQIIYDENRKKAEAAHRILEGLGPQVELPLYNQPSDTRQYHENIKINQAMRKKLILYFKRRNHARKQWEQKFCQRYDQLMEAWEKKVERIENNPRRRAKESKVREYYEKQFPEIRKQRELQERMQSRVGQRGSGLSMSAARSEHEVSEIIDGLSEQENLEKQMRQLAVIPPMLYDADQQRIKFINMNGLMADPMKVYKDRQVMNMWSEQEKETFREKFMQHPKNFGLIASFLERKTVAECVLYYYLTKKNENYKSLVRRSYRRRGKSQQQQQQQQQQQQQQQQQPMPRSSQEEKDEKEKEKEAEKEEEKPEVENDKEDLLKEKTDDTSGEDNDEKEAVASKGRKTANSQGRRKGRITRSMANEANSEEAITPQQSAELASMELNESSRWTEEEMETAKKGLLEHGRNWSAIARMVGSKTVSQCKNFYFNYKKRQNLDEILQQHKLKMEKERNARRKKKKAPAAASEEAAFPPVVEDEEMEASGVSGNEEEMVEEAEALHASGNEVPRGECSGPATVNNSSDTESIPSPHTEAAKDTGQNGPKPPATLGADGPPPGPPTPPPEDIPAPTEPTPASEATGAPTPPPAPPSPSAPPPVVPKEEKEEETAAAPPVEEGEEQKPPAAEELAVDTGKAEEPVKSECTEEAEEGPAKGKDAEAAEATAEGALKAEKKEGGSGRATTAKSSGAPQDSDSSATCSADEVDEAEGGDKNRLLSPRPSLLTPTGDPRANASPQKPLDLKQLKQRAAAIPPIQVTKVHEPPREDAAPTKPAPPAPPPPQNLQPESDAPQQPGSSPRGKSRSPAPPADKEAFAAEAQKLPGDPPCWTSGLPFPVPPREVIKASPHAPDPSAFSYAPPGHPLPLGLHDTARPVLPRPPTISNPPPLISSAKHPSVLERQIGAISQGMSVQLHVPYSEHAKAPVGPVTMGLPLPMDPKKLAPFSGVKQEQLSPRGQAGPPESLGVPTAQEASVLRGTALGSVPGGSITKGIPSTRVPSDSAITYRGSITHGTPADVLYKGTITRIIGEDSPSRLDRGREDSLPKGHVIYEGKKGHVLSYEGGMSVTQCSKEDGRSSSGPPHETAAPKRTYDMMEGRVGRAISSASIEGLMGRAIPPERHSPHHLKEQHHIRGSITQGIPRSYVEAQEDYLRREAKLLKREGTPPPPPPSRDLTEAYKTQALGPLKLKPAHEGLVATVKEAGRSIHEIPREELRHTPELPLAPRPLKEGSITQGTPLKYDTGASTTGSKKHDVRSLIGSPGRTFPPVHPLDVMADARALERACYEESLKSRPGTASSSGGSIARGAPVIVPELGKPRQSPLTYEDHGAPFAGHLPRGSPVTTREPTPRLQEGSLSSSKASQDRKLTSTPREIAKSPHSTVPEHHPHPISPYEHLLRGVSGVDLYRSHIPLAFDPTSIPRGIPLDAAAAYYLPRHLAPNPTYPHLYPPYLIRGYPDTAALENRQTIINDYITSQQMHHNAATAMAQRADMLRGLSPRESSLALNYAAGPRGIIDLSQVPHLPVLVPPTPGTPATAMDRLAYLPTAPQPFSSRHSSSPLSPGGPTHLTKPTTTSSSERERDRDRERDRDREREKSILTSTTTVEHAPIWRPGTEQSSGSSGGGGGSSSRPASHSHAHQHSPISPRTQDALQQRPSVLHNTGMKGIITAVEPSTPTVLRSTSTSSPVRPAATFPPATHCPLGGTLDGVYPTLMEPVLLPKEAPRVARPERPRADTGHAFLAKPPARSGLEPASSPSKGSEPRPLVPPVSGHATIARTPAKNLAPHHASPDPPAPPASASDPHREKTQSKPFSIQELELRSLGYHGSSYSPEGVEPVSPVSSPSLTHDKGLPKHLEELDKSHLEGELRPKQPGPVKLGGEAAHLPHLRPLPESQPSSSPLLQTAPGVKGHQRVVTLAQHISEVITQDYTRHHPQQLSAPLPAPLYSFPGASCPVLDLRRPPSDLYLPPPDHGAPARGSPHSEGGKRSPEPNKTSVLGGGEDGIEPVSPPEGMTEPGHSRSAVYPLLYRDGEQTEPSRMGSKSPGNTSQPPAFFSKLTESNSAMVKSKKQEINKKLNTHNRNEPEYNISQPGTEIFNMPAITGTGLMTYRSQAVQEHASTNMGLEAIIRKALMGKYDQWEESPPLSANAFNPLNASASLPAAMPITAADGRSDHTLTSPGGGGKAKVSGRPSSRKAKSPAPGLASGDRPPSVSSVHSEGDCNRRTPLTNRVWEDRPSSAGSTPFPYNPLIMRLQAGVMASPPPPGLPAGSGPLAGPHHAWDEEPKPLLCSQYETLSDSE

With `CCOC(=O)/C(=C\C=C1/Sc2ccccc2N1CC)C(C)=O` the EC50 [1] was > 100 µM (active).
For `COc1cc2c(c(OC)c1OC)-c1ccc(O)cc1[C@@H](NC(C)=O)CC2` [N-ACETYLCOLCHINOL], the EC50 (BJ [2]) was 0.345 µM (inconclusive), the AC50 (Paired box protein Pax-8) was 0.37 µM (active) and the EC50 [3] was 0.201 µM (active). The EC50 (BJ [4]) was 0.146 µM (inconclusive), the EC50 [5] was 0.072 µM (active) and the EC50 [6] was < 0.1 µM (active). The EC50 (cells) was 0.1 µM (active), the EC50 [7] was < 0.1 µM (active) and the EC50 (BJ [8]) was 0.193 µM (active). For the same compound, the EC50 [9] was < 0.1 µM (active), the EC50 [10] was 0.088 µM (active) and the IC50 [11] was > 80 µM (inactive).
For `CCOC(=O)C(/C=N/c1cc(C)nn1-c1ccc(Cl)cc1)=C(\O)OCC`, the IC50 [12] was 30.6 µM (not active) and the IC50 [13] was 18.9 µM (not active).
For `CCc1ccc(N=Nc2ccc(O)c3[nH]cnc23)cc1`, the EC50 (Vasopressin V1a receptor) was > 29.9 µM (not active), the EC50 (Oxytocin receptor) was > 29.9 µM (not active) and the AC50 [14] was 0.996 µM (active).
For `CCOc1ccc(N2C(=O)S/C(=C\c3ccc(O)c(OC)c3)C2=O)cc1`, the IC50 [15] was > 55.7 µM (not active) and the IC50 (Insulin-degrading enzyme) was 29.8 µM (not active).
For `COC(=O)c1ccccc1NC(=O)Cn1c(-c2nonc2N)nc2ccccc21`, the IC50 [16] was 15 µM (not active), the IC50 [17] was 4.83 µM (active) and the IC50 [11] was > 80 µM (inactive).
For `CCOc1ccc(Br)cc1C(=O)Nc1ccc(C(=O)NCC(C)C)cc1`, the IC50 [18] was > 39.8 µM (not active), the EC50 [6] was 18.1 µM (active) and the EC50 [7] was 21.6 µM (active). For the same compound, the IC50 [19] was > 39.8 µM (not active), the EC50 [9] was > 120 µM (not active) and the EC50 (Galanin receptor type 2) was > 55.7 µM (not active).
